The record followed here is patent publication US20260078135A1, “POLYCYCLIC QUINAZOLINES FOR INHIBITION OF ERBB2” (Enliven Inc., priority 2022, published 2026).

Structures are written as SMILES.

For test [1], the target named is T1, phosphorylated ERBB2 (pERBB2) (Homo sapiens, UniProt P04626).
T1 construct: endogenous in cells; host or cells: BT-474
Put plainly: Detection of phosphorylated ERBB2 (pERBB2) by ELISA in BT-474 cells. It counts as cell-based. The note with it: four hour incubation. On the procedure:
BT-474 cells were seeded into a 96-well at 2.0*10^4 cells/100 μl/well. Compounds were dissolved and serially diluted in DMSO. The compounds were then were added, mixed, and incubated for four hours at 37° C., 5% CO2. Compounds were added using four-fold dilutions at final concentrations ranging from 10 μM to 0.01 nM. Following the four hour incubation with compounds, cell lysates were prepared. Plates were centrifuged for 5 μmin at 3000 RPM, and supernatant was removed from each well. Cells were washed 3 times by resuspension in 150 μl PBS, followed by centrifugation and removal of the supernatant, as above. 100 μl of cell lysis buffer (Boston BioProducts, cat #BP-115D) supplied with 1× complete ULTRA cocktail inhibitor (Thermo ScientificTM, cat #78443) was then added to the washed cells. Cells were incubated with lysis buffer for 1 hour at 4° C., and then stored at -80° C. Enzyme-linked immunosorbent assays (ELISA) were performed to measure phosphorylated ERBB2 levels. […] The next day, plates were washed with PBS+0.05% Tween20 (PBST). 150 μl of 5% BSA blocking solution was added for 1 hour at room temperature, with shaking. Plates were washed with PBST. Cell lysates were thawed and 100 μl of lysate was added to the ELISA plate. The plates were incubated for 2 hours at room temperature, with shaking. ELISA plates were then washed with PBST and 100 μl of an HRP-labeled detection antibody that binds phosphorylated tyrosine (R&D Systems, cat #841913) was added to each well. Plates were incubated for 1 hour at room temperature, with shaking. Plates were then washed with PBST, and 100 μl TMB substrate solution (R&D Systems, cat #DY999) was added. Plate were incubated in the dark for 20 minutes at room temperature. 50 μl of Stop solution (R&D Systems, cat #DY994) (50 μl) was added to each well and mixed. Optical density at 450 nm was read on an EnSpire plate reader (Perkin Elmer). The remaining kinase activity by calculated using the following formula: % Relative activity=100×([…]). The low and high control values (“LC” and “HC”) were generated from lysate from wells without cells or with cells treated with 0.1% DMSO, respectively.
(In an ELISA, binding on a coated surface is turned into a signal by an enzyme label.)

For test [2], the target named is T2, phosphorylated EGFR (pEGFR) (Homo sapiens, UniProt P00533).
T2 construct: performed to measure phosphorylated EGFR levels using A431 cells (10% FBS); endogenous in cells; host or cells: A431
Put plainly: Detection of phosphorylated EGFR (pEGFR) by AlphaLISA in EGF-stimulated A431 cells. In kind it is cell-based. The conditions noted are these: A431 cells (10% FBS), 4 hours incubation, EGF 30 ng/mL for 10 minutes. The protocol: Enzyme-linked immunosorbent assays (ELISA) were performed to measure phosphorylated EGFR levels using A431 cells (10% FBS). A431 (1.0*10^4 cells/40 μl/well) cells were seeded in 384 well. Compounds were dissolved in DMSO, serially diluted in DMSO and then were added, mixed, and incubated for 4 hours at 37° C., 5% C02. Following the 4-hours incubation, cells were stimulated for 10 minutes with EGF (Invitrogen, cat #PHG0311) at a final concentration of 30 ng/mL in the incubator. The media was aspirated and cells were lysed in 10 μL lysis buffer with protease and phosphatase inhibitors (PerkinElmer, cat #ALSU-PEGFR-A50K). The plates were placed on a shaker for 5 μminutes and then incubated for 30 min at 4° C. for complete lysis. The lysate was transferred to an Optiplate (Perkin Elmer, cat #6007290).
Acceptor mix (PerkinElmer, cat #ALSU-PEGFR-A50K) was prepared just before use and 5 μL was dispensed to all the wells, followed by a 1.5-2 h incubation at room temperature in dark. The donor mix (PerkinElmer, cat #ALSU-PEGFR-A50K) was prepared under low light conditions prior to use and 5 μl of donor mix was added to all the wells under subdued lighting or green filters. The plates were placed on a shaker for 5 μmin, sealed, and incubated overnight at room temperature in dark. Plates were read on the Envision (PerkinElmer) using standard AlphaLISA settings.
The percentage of inhibition on EGFR phosphorylation was calculated following equation: % Inhibition=100×(LumHC−LumSample)/(LumHC−LumLC). The low and high controls (LC/HC) are generated from lysate from wells with cells treated with DMSO or […] Staurosporine (BioAustralis, cat #BIA-S1086), […]. IC50 values were calculated by fitting the Curve using XLfit (v5.3.1.3), equation 201: Y=Bottom+(Top−Bottom)/(1+10^((Log IC50−X)*HillSlope)).

T1 sequence (P04626 23-1255): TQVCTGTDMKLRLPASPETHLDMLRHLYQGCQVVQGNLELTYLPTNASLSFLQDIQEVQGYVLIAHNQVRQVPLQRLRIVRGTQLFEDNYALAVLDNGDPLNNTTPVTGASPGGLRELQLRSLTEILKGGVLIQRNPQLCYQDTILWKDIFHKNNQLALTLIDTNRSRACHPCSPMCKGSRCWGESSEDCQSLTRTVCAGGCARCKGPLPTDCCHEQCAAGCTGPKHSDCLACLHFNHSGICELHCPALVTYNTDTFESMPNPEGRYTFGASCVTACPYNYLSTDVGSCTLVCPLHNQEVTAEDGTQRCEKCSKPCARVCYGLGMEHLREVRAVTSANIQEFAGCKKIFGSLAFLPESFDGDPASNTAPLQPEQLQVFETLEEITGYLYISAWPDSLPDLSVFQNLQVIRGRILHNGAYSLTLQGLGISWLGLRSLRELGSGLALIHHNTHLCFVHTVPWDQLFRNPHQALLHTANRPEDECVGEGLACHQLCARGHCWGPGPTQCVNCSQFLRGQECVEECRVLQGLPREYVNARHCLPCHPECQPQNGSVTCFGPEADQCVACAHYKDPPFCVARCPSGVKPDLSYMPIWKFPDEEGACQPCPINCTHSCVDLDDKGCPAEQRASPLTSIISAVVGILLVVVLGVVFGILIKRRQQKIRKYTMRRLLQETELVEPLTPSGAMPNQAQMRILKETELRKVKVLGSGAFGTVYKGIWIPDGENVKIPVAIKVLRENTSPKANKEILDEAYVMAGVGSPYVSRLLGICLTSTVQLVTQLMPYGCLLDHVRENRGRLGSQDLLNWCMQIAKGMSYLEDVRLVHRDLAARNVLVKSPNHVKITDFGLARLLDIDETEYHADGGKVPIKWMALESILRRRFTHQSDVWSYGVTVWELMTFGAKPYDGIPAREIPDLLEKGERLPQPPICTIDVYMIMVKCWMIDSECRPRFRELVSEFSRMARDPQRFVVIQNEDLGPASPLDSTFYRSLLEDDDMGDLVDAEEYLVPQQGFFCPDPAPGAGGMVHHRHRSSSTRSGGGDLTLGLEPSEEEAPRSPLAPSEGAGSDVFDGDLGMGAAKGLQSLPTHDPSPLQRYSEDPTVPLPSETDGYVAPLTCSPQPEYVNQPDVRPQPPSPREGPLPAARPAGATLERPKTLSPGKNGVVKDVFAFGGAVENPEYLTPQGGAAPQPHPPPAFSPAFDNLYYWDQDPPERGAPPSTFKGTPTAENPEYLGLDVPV
T2 sequence (P00533 25-1210): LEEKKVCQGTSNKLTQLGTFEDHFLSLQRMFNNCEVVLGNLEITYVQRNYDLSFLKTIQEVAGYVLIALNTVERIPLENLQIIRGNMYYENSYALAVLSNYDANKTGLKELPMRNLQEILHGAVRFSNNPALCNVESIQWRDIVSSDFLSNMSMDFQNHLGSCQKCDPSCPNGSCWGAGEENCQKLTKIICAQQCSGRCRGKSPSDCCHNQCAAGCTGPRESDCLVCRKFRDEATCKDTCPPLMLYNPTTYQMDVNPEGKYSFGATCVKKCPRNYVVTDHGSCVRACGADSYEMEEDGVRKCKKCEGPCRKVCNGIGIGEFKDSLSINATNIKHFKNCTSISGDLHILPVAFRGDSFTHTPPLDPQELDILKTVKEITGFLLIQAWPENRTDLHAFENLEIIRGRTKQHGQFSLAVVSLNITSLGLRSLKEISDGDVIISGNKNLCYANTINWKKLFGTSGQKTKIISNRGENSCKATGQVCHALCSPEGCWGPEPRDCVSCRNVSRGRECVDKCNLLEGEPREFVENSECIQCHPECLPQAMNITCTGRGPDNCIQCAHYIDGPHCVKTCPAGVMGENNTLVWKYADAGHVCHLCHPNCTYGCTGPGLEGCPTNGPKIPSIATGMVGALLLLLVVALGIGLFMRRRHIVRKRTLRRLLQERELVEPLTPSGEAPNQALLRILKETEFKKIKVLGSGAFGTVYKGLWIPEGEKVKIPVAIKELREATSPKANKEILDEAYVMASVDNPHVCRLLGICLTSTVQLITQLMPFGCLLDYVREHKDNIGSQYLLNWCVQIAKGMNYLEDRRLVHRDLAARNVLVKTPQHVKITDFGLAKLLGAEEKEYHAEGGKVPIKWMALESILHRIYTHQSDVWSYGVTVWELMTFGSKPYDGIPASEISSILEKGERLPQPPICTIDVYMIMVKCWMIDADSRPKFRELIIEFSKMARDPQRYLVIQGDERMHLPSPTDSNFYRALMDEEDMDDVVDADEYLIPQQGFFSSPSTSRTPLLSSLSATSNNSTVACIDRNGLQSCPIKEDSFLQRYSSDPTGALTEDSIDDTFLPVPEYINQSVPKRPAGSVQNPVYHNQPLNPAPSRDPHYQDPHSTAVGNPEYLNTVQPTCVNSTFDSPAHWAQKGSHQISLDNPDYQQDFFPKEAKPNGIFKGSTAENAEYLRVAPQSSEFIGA

As to `COCCN1CCN2c3ccc4ncnc(Nc5ccc(Oc6ccn7ncnc7c6)c(C)c5)c4c3OC[C@H]2C1` [Compound 111, (R)—N-(4-([1,2,4]triazolo[1,5-a]pyridin-7-yloxy)-3-methylphenyl)-8-(2-methoxyethyl)-6,6a,7,8,9,10-hexahydropyrazino[1′,2′:4,5][1,4]oxazino[2,3-f]quinazolin-4-amine], the IC50 in test [1] is 45.7 nM; in test [2], > 10000 nM.

Consider `Cc1cc(Nc2ncnc3cc4c(nc23)N2CCN(C)C[C@H]2CO4)c(F)cc1Oc1ccn2ncnc2c1` [Compound 75, (S)—N-(4-([1,2,4]triazolo[1,5-a]pyridin-7-yloxy)-2-fluoro-5-methylphenyl)-3-methyl-1,2,3,4,4a,5-hexahydropyrazino[1,2-d]pyrimido[4′,5′:5,6]pyrido[3,2-b][1,4]oxazin-11-amine], for which the values for the IC50 in test [1] and in test [2] were 73.9 nM and > 10000 nM, respectively.

Regarding `Cc1cc(Nc2ncnc3cc4c(nc23)N2CCOC[C@H]2CO4)ccc1Oc1ccc2c(c1)ncn2C` [Compound 107, (S)—N-(3-methyl-4-((1-methyl-1H-benzo[d]imidazol-5-yl)oxy)phenyl)-1,2,4a,5-tetrahydro-4H-[1,4]oxazino[4,3-d]pyrimido[4′,5′:5,6]pyrido[3,2-b][1,4]oxazin-11-amine], the IC50 in test [1] was 78.2 nM; in test [2], > 10000 nM.

`Fc1cc(Oc2ccn3ncnc3c2)ccc1Nc1ncnc2cc3c(nc12)N1CCOC[C@H]1CO3` [Compound 104, (S)—N-(4-([1,2,4]triazolo[1,5-a]pyridin-7-yloxy)-2-fluorophenyl)-1,2,4a,5-tetrahydro-4H-[1,4]oxazino[4,3-d]pyrimido[4′,5′:5,6]pyrido[3,2-b][1,4]oxazin-11-amine]: the 50% inhibitory concentration (IC50) was 495 nM in test [1] and > 10000 nM in test [2].

As to `Cc1cc(Nc2ncnc3ccc4c(c23)OC[C@H]2CN(C)CCN42)ccc1Oc1ccn2ncnc2c1` [Compound 42, (R)—N-(4-([1,2,4]triazolo[1,5-a]pyridin-7-yloxy)-3-methylphenyl)-8-methyl-6,6a,7,8,9,10-hexahydropyrazino[1′,2′:4,5][1,4]oxazino[2,3-f]quinazolin-4-amine], the concentration for half-maximal inhibition (IC50) was 31.5 nM in test [1] and > 10000 nM in test [2].

Consider `Cc1cc(Nc2ncnc3ccc4c(c23)OC[C@H]2CN4CCN2)ccc1Oc1ccc2c(c1)ncn2C` [Compound 55, (3R)—N-(3-methyl-4-((1-methyl-1H-benzo[d]imidazol-5-yl)oxy)phenyl)-3,4,5,6-tetrahydro-2H-3,7-methano[1,4,7]oxadiazonino[2,3-f]quinazolin-13-amine], for which the IC50 was 108 nM in test [1] and > 10000 nM in test [2].

Take `Cc1cc(Nc2ncnc3cc4c(nc23)N2CCNC[C@H]2CO4)ccc1Oc1ccc2c(c1)ncn2C` [Compound 37, (S)—N-(3-methyl-4-((1-methyl-1H-benzo[d]imidazol-5-yl)oxy)phenyl)-1,2,3,4,4a,5-hexahydropyrazino[1,2-d]pyrimido[4′,5′:5,6]pyrido[3,2-b][1,4]oxazin-11-amine]: the IC50 was 77.6 nM in test [1] and > 10000 nM in test [2].

Take `CCN1CCN2c3nc4c(Nc5ccc(Oc6ccn7ncnc7c6)c(C)c5)ncnc4cc3OC[C@@H]2C1` [Compound 65, (S)—N-(4-([1,2,4]triazolo[1,5-a]pyridin-7-yloxy)-3-methylphenyl)-3-ethyl-1,2,3,4,4a,5-hexahydropyrazino[1,2-d]pyrimido[4′,5′:5,6]pyrido[3,2-b][1,4]oxazin-11-amine]: the concentration for half-maximal inhibition (IC50) in test [1] was 94.9 nM; in test [2] it was > 10000 nM.

Consider `Cc1cc(Nc2ncnc3cc4c(nc23)N2CCOC[C@H]2CO4)c(F)cc1Oc1ccn2ncnc2c1` [Compound 103, (S)—N-(4-([1,2,4]triazolo[1,5-a]pyridin-7-yloxy)-2-fluoro-5-methylphenyl)-1,2,4a,5-tetrahydro-4H-[1,4]oxazino[4,3-d]pyrimido[4′,5′:5,6]pyrido[3,2-b][1,4]oxazin-11-amine], for which the half-inhibitory concentration (IC50) in test [1] is 154 nM; in test [2], > 10000 nM.

As for `Cc1cc(Nc2ncnc3ccc4c(c23)OC[C@@H]2CNCCN42)ccc1Oc1ccn2ncnc2c1` [Compound 43, (S)—N-(4-([1,2,4]triazolo[1,5-a]pyridin-7-yloxy)-3-methylphenyl)-6,6a,7,8,9,10-hexahydropyrazino[1′,2′:4,5][1,4]oxazino[2,3-f]quinazolin-4-amine], the half-inhibitory concentration (IC50) in test [1] was 76.5 nM; in test [2], > 10000 nM.

For the molecule `Cc1cc(Nc2ncnc3ccc4c(c23)OC[C@H]2COCCN42)c(F)cc1Oc1ccn2ncnc2c1` [Compound 100, (R)—N-(4-([1,2,4]triazolo[1,5-a]pyridin-7-yloxy)-2-fluoro-5-methylphenyl)-6a,7,9,10-tetrahydro-6H-[1,4]oxazino[4′,3′:4,5][1,4]oxazino[2,3-f]quinazolin-4-amine], the IC50 in test [1] is 82.2 nM; in test [2], > 10000 nM.

For `Cc1cc(Nc2ncnc3ccc4c(c23)OC[C@H]2CN4CCO2)ccc1Oc1ccn2ncnc2c1` [Compound 71, (3R)—N-(4-([1,2,4]triazolo[1,5-a]pyridin-7-yloxy)-3-methylphenyl)-2,3,5,6-tetrahydro-3,7-methano[1,4,7]dioxazonino[5,6-f]quinazolin-13-amine], the figures for the 50% inhibitory concentration (IC50) in test [1] and in test [2] were 227 nM and > 10000 nM, respectively.

For `Fc1cc(Oc2ccn3ncnc3c2)ccc1Nc1ncnc2ccc3c(c12)OC[C@H]1COCCN31` [Compound 101, (R)—N-(4-([1,2,4]triazolo[1,5-a]pyridin-7-yloxy)-2-fluorophenyl)-6a,7,9,10-tetrahydro-6H-[1,4]oxazino[4′,3′:4,5][1,4]oxazino[2,3-f]quinazolin-4-amine], the IC50 in test [1] is 503 nM; in test [2], > 10000 nM.

Take `Cc1cc(Nc2ncnc3cc4c(nc23)N2CCN(C)C[C@@H]2CO4)ccc1Oc1ccn2ncnc2c1` [Compound 36, (R)—N-(4-([1,2,4]triazolo[1,5-a]pyridin-7-yloxy)-3-methylphenyl)-3-methyl-1,2,3,4,4a,5-hexahydropyrazino[1,2-d]pyrimido[4′,5′:5,6]pyrido[3,2-b][1,4]oxazin-11-amine]: the 50% inhibitory concentration (IC50) in test [1] was 234 nM; in test [2], > 10000 nM.

Regarding `Cc1cc(Nc2ncnc3cc4c(cc23)N2CCN(C)C[C@H]2CO4)ccc1Oc1ccn2ncnc2c1` [Compound 58, (S)—N-(4-([1,2,4]triazolo[1,5-a]pyridin-7-yloxy)-3-methylphenyl)-3-methyl-1,2,3,4,4a,5-hexahydropyrazino[1′,2′:4,5][1,4]oxazino[3,2-g]quinazolin-11-amine], the IC50 in test [1] is 21.9 nM; in test [2] it was > 10000 nM.

Consider `Cc1cc(Nc2ncnc3cc4c(cc23)N2CCNC[C@@H]2CO4)ccc1Oc1ccn2ncnc2c1` [Compound 59, (R)—N-(4-([1,2,4]triazolo[1,5-a]pyridin-7-yloxy)-3-methylphenyl)-1,2,3,4,4a,5-hexahydropyrazino[1′,2′:4,5][1,4]oxazino[3,2-g]quinazolin-11-amine], for which the IC50 was 91.7 nM in test [1] and > 10000 nM in test [2].

`Cc1cc(Nc2ncnc3cc4c(cc23)N2CCN(C)C[C@H]2CO4)ccc1Oc1ccc2c(c1)ncn2C` [Compound 62, (S)-3-methyl-N-(3-methyl-4-((1-methyl-1H-benzo[d]imidazol-5-yl)oxy)phenyl)-1,2,3,4,4a,5-hexahydropyrazino[1′,2′:4,5][1,4]oxazino[3,2-g]quinazolin-11-amine]: the figures for the IC50 in test [1] and in test [2] were 38.5 nM and > 10000 nM, respectively.

What is called IC50 is the concentration that inhibits the measured activity by half. Higher therefore signals a need for much substance.
